Source: US20180136227A1, “Treatment and Diagnosis of Hereditary Xerocytosis” (Universite d'aix Marseille, priority 2015, published 2018)

What was measured:
[1] = system: control red blood cells; assay: Osmotic fragility test in hypotonic saline, control red blood cells; settings: for hemolysis induced before the osmotic test: blood incubation 25 hours, control red blood cells
[2] = Sickle Cell disease, Ataga et al., 2011; cited from earlier work
[3] = system: control red blood cells with WT Gardos channels; assay: Vanadate-induced K+ loss and water loss in control red blood cells; format: cell-based, human
Experimental: Red blood cell cation content and volume measurements: Freshly drawn blood was washed 4 times at room temperature in medium containing in mM: NaCl 147, KCl 5, MgSO4 2, CaCl2 1, Hepes 10, buffered with NaOH pH 7.4 (320 mOsm). […] A few minutes before sampling time, 400 μl of cell suspension was taken to fill 3 nylon tubes that were centrifuged for 10 minutes at 4° C., 20,000. g at the exact sampling time. The supernatant was collected for extracellular ion content measurements. The pellet of red cells was extracted and immediately weighted. Then, dry weight was measured after overnight heating (80° C.). Water content was calculated with a correction of 3.64% corresponding to trapped medium between packed cells. Intracellular ions were extracted from dried pellets by overnight incubation at 4° C. in 5 ml milliRho water (Millipore). Na^+ and K^+ were measured by flame spectroscopy with a PFP7 Jenway. Statistics: Mann and Whitney test was used to compare control versus patient or control versus inhibitor in red blood cell experiments.

Row | SMILES | hemolysis induced before the osmotic test ([1]; Senicapoc 4 or 0.4 μM) | effect on osmotic resistance ([1]; Senicapoc 4 or 0.4 μM, blood stored 25 hours at 4° C., control) | toxicity in phase III study [2] | inhibition at 0.4 µM ([3]; Homo sapiens, Erythrocyte, 1 h) | inhibition at 4 µM ([3]; Homo sapiens, Erythrocyte, 1 h) | hemolysis induced before the osmotic test ([1]; TRAM-34 10 μM) | inhibition at 10 µM ([3]; Homo sapiens, Erythrocyte, 1 h, read-out: inhibition of K+ loss) | effect on K+ loss and cell water loss ([3]; TRAM-34 10 μM, 5 mM vanadate, red blood cells with WT Gardos channels)
1 | NC(=O)C(c1ccccc1)(c1ccc(F)cc1)c1ccc(F)cc1 [Senicapoc, bis(4-fluorophenyl)phenyl acetamide] | not observed | no effect | non-toxic | 84 ± 4% | 95 ± 4% |  |  | 
2 | Clc1ccccc1C(c1ccccc1)(c1ccccc1)n1cccn1 [TRAM-34, 1-[(2-Chlorophenyl)diphenylmethyl]-1H-pyrazole] |  |  |  |  |  | strong hemolysis | 97 ± 1% | able to reduce
